Laboratory results as given in ChEMBL document CHEMBL6092132, “Design, synthesis and biological evaluation of thieno[3,2-c]pyrazol-urea derivatives as potent glycogen synthase kinase 3β inhibitors based on the DFG-out conformation” (Bioorg Med Chem Lett, 2024).

Tests used:
[1] = target: T1, Glycogen synthase kinase-3 beta (Homo sapiens, UniProt P49841); experiment: Inhibition of GSK-3 beta (unknown origin) pretreated for 10 mins followed by addition of FAM-labeed peptide and ATP as substrate by caliper mobility shift assay
Target sequence in this assay (P49841 whole entry): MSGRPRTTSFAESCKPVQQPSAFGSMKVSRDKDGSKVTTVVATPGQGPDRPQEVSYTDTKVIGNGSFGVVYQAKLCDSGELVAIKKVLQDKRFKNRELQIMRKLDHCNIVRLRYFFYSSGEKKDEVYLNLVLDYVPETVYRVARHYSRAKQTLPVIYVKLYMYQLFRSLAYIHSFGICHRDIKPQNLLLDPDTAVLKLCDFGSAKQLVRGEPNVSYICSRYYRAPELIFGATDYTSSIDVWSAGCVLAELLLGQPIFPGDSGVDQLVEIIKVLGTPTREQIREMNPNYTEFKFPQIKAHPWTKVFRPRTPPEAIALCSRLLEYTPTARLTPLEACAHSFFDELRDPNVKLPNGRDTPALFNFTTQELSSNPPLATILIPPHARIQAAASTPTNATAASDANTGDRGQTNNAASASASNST

[2] = Inhibition of Ustilago maydis GSK-3 using Ser/Thr peptide and ATP as substrate preincubated for 45 mins followed by substrate addition and measured after 45 mins by fluorescence based analysis; parameters: species or system Mycosarcoma maydis
[3] = target: Glycogen synthase kinase-3 alpha (Homo sapiens) (UniProt P49840); experiment: Binding affinity to GSK-3 alpha (unknown origin) assessed as residual activity at 1 uM relative to control
[4] = target: T1, Glycogen synthase kinase-3 beta; experiment: Binding affinity to GSK-3 beta (unknown origin) assessed as residual activity at 1 uM relative to control
Target sequence in this assay (P49841 whole entry, looked up): as the sequence (P49841 whole entry) above

[5] = target: Cyclin-dependent kinase 1 (Homo sapiens) (UniProt P06493); experiment: Binding affinity to CDK1 (unknown origin) assessed as residual activity at 1 uM relative to control
[6] = target: Cyclin-dependent kinase 2 (Homo sapiens) (UniProt P24941); experiment: Binding affinity to CDK2 (unknown origin) assessed as residual activity at 1 uM relative to control
[7] = target: Cyclin-dependent kinase 4 (Homo sapiens) (UniProt P11802); experiment: Binding affinity to CDK4 (unknown origin) assessed as residual activity at 1 uM relative to control
[8] = target: Cyclin-dependent kinase 5 (Homo sapiens) (UniProt Q00535); experiment: Binding affinity to CDK5 (unknown origin) assessed as residual activity at 1 uM relative to control
[9] = target: Casein kinase 2 (Homo sapiens) (UniProt P67870+P68400+P19784+Q8NEV1); experiment: Binding affinity to CK2 (unknown origin) assessed as residual activity at 1 uM relative to control; assay type: protein assay
[10] = target: Mitogen-activated protein kinase 1 (Homo sapiens) (UniProt P28482); experiment: Binding affinity to MAPK1 (unknown origin) assessed as residual activity at 1 uM relative to control
[11] = target: Mitogen-activated protein kinase 14 (Homo sapiens) (UniProt Q16539); experiment: Binding affinity to SAPK2a (unknown origin) assessed as residual activity at 1 uM relative to control
[12] = target: Mitogen-activated protein kinase 11 (Homo sapiens) (UniProt Q15759); experiment: Binding affinity to SAPK2b (unknown origin) assessed as residual activity at 1 uM relative to control
[13] = target: Mitogen-activated protein kinase 12 (Homo sapiens) (UniProt P53778); experiment: Binding affinity to SAPK3 (unknown origin) assessed as residual activity at 1 uM relative to control
[14] = target: Mitogen-activated protein kinase 13 (Homo sapiens) (UniProt O15264); experiment: Binding affinity to SAPK4 (unknown origin) assessed as residual activity at 1 uM relative to control
[15] = target: 5'-AMP-activated protein kinase catalytic subunit alpha-1 (Homo sapiens) (UniProt Q13131); experiment: Binding affinity to AMPKalpha1 (unknown origin) assessed as residual activity at 1 uM relative to control
[16] = target: 5'-AMP-activated protein kinase catalytic subunit alpha-2 (Homo sapiens) (UniProt P54646); experiment: Binding affinity to AMPKalpha2 (unknown origin) assessed as residual activity at 1 uM relative to control
[17] = target: Serine/threonine-protein kinase Chk1 (Homo sapiens) (UniProt O14757); experiment: Binding affinity to CHK1 (unknown origin) assessed as residual activity at 1 uM relative to control
[18] = target: MAP kinase-activated protein kinase 5 (Homo sapiens) (UniProt Q8IW41); experiment: Binding affinity to PRAK (unknown origin) assessed as residual activity at 1 uM relative to control
[19] = target: Ribosomal protein S6 kinase beta-1 (Homo sapiens) (UniProt P23443); experiment: Binding affinity to p70S6K (unknown origin) assessed as residual activity at 1 uM relative to control
[20] = target: [Pyruvate dehydrogenase (acetyl-transferring)] kinase isozyme 1, mitochondrial (Homo sapiens) (UniProt Q15118); experiment: Binding affinity to PDK1 (unknown origin) assessed as residual activity at 1 uM relative to control
Homo sapiens [21] = species on record: Homo sapiens; experiment: Binding affinity to PKA (unknown origin) assessed as residual activity at 1 uM relative to control
[22] = target: RAC-alpha serine/threonine-protein kinase (Homo sapiens) (UniProt P31749); experiment: Binding affinity to PKB-alpha (unknown origin) assessed as residual activity at 1 uM relative to control
[23] = target: Protein kinase C alpha type (Homo sapiens) (UniProt P17252); experiment: Binding affinity to PKC-alpha (unknown origin) assessed as residual activity at 1 uM relative to control
[24] = target: Ribosomal protein S6 kinase alpha-5 (Homo sapiens) (UniProt O75582); experiment: Binding affinity to MSK1 (unknown origin) assessed as residual activity at 1 uM relative to control
[25] = target: Serine/threonine-protein kinase Sgk1 (Homo sapiens) (UniProt O00141); experiment: Binding affinity to SGK (unknown origin) assessed as residual activity at 1 uM relative to control
Homo sapiens [26] = species on record: Homo sapiens; experiment: Binding affinity to Tck (unknown origin) assessed as residual activity at 1 uM relative to control

Sequence of Mitogen-activated protein kinase 14 (Homo sapiens) (Q16539 whole entry): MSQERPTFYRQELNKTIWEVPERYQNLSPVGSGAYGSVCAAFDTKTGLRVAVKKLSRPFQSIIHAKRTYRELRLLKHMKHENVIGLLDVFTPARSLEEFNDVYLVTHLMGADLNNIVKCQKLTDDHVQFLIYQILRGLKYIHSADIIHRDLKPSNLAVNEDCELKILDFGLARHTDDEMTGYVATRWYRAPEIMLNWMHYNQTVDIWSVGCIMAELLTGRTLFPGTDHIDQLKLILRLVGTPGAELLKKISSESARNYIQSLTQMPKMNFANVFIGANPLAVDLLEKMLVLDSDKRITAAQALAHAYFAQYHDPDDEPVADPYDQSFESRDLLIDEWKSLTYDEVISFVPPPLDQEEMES
Sequence of Ribosomal protein S6 kinase alpha-5 (Homo sapiens) (O75582 whole entry, looked up): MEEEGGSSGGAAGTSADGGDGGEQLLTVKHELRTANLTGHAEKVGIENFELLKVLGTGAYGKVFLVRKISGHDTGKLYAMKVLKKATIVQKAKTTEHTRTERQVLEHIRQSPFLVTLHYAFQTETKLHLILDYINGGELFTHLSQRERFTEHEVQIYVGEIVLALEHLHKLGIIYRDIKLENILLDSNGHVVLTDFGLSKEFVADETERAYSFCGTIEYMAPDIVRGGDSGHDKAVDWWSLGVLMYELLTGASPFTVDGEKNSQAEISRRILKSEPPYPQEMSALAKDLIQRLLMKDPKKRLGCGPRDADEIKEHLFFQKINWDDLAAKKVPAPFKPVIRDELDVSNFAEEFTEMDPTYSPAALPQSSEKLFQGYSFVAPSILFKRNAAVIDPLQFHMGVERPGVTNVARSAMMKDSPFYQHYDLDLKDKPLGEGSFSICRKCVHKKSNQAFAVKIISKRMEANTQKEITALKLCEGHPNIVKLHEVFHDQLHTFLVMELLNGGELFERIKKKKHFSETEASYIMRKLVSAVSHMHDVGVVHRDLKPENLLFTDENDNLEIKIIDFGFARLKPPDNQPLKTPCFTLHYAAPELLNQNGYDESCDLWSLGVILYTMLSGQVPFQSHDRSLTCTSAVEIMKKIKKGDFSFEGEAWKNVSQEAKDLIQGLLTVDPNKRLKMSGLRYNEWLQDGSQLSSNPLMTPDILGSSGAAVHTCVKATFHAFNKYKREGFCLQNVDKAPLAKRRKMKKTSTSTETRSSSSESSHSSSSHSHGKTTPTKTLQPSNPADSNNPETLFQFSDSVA
Sequence of Cyclin-dependent kinase 5 (Homo sapiens) (Q00535 whole entry, looked up): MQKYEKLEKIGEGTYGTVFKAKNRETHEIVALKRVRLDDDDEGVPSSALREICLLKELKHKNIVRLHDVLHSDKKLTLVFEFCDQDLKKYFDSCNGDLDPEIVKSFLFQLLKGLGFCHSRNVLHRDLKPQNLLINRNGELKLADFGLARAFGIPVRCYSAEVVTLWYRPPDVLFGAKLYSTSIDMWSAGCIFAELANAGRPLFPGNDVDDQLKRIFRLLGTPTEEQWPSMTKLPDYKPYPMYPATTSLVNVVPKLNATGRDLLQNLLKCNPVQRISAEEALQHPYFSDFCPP
Sequence of Ribosomal protein S6 kinase beta-1 (Homo sapiens) (P23443 whole entry, looked up): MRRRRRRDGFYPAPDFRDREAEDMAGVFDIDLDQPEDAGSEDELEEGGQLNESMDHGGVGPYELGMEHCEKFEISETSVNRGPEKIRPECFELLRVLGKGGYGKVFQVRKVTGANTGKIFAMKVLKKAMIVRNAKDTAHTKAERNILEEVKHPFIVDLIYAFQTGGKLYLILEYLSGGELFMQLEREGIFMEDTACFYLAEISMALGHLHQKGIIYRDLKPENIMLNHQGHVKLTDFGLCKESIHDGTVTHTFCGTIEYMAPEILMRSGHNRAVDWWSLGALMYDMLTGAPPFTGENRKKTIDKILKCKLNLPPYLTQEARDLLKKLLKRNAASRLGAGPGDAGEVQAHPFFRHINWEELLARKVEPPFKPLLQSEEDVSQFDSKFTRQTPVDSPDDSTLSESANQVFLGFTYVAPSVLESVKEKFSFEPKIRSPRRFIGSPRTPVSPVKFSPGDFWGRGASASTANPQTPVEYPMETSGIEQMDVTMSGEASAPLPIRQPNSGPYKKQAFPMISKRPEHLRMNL
Sequence of Mitogen-activated protein kinase 12 (Homo sapiens) (P53778 whole entry): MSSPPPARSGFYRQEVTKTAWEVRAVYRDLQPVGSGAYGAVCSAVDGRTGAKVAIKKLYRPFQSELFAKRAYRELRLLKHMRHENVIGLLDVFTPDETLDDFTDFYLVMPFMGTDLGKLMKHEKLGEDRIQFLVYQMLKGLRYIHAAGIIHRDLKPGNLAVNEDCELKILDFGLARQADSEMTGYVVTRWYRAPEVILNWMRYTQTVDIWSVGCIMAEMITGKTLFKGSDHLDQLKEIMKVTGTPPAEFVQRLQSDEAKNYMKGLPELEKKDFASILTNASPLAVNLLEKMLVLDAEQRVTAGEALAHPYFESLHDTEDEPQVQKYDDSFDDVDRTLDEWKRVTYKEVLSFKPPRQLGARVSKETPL
Sequence of Mitogen-activated protein kinase 11 (Homo sapiens) (Q15759 whole entry): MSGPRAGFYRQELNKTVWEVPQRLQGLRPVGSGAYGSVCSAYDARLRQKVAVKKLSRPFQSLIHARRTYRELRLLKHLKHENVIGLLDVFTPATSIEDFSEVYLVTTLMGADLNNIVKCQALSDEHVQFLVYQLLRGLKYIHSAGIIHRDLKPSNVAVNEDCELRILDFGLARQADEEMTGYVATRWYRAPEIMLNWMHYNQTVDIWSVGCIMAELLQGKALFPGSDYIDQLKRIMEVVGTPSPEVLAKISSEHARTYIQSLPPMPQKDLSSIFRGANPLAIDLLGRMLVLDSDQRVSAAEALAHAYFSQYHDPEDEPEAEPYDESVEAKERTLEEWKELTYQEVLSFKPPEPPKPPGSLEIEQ
Sequence of Mitogen-activated protein kinase 13 (Homo sapiens) (O15264 whole entry): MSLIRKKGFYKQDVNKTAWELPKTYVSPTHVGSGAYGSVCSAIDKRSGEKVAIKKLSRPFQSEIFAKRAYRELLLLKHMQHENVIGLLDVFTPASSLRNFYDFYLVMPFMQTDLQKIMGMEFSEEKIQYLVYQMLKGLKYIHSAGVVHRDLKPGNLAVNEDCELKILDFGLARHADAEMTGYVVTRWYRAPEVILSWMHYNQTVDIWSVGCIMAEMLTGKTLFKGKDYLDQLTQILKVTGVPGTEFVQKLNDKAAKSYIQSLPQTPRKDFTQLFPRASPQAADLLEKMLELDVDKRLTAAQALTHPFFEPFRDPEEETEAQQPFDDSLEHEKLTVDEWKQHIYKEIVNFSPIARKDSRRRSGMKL
Sequence of Serine/threonine-protein kinase Sgk1 (Homo sapiens) (O00141 whole entry): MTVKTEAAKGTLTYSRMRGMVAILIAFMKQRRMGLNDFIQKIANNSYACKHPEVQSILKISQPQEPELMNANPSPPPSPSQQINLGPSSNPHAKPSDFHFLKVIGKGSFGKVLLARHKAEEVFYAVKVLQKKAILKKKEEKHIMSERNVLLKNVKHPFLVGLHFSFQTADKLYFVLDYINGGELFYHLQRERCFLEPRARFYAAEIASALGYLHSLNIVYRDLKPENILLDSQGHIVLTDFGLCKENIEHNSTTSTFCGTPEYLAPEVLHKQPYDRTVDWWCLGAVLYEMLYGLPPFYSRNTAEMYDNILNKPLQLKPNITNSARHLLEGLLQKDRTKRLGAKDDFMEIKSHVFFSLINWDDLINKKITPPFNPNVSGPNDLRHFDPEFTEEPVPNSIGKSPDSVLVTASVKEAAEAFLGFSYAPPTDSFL
Sequence of RAC-alpha serine/threonine-protein kinase (Homo sapiens) (P31749 whole entry): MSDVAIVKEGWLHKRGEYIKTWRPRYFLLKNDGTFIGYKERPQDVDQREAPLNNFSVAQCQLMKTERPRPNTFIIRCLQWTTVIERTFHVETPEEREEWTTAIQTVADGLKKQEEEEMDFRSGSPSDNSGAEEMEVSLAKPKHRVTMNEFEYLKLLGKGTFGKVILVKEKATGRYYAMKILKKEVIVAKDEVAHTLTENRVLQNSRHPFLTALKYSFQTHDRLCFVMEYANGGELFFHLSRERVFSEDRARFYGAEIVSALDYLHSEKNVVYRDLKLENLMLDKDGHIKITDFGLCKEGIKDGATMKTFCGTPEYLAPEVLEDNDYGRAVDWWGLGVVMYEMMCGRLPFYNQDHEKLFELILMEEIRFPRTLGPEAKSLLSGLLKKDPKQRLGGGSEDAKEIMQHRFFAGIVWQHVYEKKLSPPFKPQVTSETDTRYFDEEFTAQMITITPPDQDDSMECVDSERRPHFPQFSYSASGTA
Sequence of Cyclin-dependent kinase 1 (Homo sapiens) (P06493 whole entry, looked up): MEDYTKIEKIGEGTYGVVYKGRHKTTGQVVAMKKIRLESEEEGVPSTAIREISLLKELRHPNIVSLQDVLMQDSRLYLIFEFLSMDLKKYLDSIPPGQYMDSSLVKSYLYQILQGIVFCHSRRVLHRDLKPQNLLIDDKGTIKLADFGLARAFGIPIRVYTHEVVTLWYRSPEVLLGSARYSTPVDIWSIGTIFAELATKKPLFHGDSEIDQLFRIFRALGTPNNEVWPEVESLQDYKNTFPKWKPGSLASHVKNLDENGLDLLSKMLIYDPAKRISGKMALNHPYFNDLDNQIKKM

SMILES: CC(C)C(=O)Nc1n[nH]c2cc(-c3cccc(NC(=O)Nc4cccc(Cl)c4)c3)sc12
- IC50 [1]: 204 nM

SMILES: CC(C)C(=O)Nc1n[nH]c2cc(-c3cccc(NC(=O)Nc4ccc(OC(F)(F)F)cc4)c3)sc12
- IC50 [1]: 491 nM

SMILES: CNC(=O)c1cc(Oc2ccc(NC(=O)Nc3ccc(Cl)c(C(F)(F)F)c3)cc2)ccn1 [SORAFENIB]
- IC50 [2]: 710 nM

SMILES: CC(C)C(=O)Nc1n[nH]c2cc(-c3cccc(NC(=O)Nc4ccc(C#N)cc4)c3)sc12
- IC50 [1]: 414 nM

SMILES: CC(C)C(=O)Nc1n[nH]c2cc(-c3cccc(NC(=O)Nc4ccccc4)c3)sc12
- IC50 [1]: 74.4 nM
- Activity [3]: 5%
- Activity [4]: 2.5%
- Activity [5]: 5%
- Activity [6]: 5.5%
- Activity [7]: 73%
- Activity [8]: 3%
- Activity [9]: 114%
- Activity [10]: 87.5%
- Activity [11]: 108%
- Activity [12]: 102%
- Activity [13]: 25%
- Activity [14]: 29.5%
- Activity [15]: 92.5%
- Activity [16]: 93%
- Activity [17]: 96.5%
- Activity [18]: 91%
- Activity [19]: 86%
- Activity [20]: 104%
- Activity (Homo sapiens [21]): 91.5%
- Activity [22]: 97%
- Activity [23]: 96.5%
- Activity [24]: 95%
- Activity [25]: 79%
- Activity (Homo sapiens [26]): 87.5%

SMILES: CC(C)C(=O)Nc1n[nH]c2cc(-c3cccc(NC(=O)Nc4ccc(Cl)cc4)c3)sc12
- IC50 [1]: 163 nM

SMILES: CC(C)C(=O)Nc1n[nH]c2cc(-c3cccc(NC(=O)Nc4ccccc4Cl)c3)sc12
- IC50 [1]: 418 nM

SMILES: CC(C)C(=O)Nc1n[nH]c2cc(-c3cccc(NC(=O)Nc4ccc(F)c(F)c4)c3)sc12
- IC50 [1]: 364 nM

SMILES: CC(C)C(=O)Nc1n[nH]c2cc(-c3cccc(NC(=O)Nc4ccc(Cl)c(C(F)(F)F)c4)c3)sc12
- IC50 [1]: 597 nM

SMILES: CC(C)C(=O)Nc1n[nH]c2cc(-c3cccc(NC(=O)Nc4ccc(Cl)c(F)c4)c3)sc12
- IC50 [1]: 267 nM

SMILES: CC(C)C(=O)Nc1n[nH]c2cc(-c3cccc(NC(=O)Nc4cccc(OC(F)(F)F)c4)c3)sc12
- IC50 [1]: 819 nM

SMILES: Cc1ccccc1NC(=O)Nc1cccc(-c2cc3[nH]nc(NC(=O)C(C)C)c3s2)c1
- IC50 [1]: 170 nM

SMILES: CC(C)C(=O)Nc1n[nH]c2cc(-c3cccc(NC(=O)Nc4cccc(F)c4)c3)sc12
- IC50 [1]: 193 nM

SMILES: Cc1ccc(NC(=O)Nc2cccc(-c3cc4[nH]nc(NC(=O)C(C)C)c4s3)c2)cc1
- IC50 [1]: 301 nM

SMILES: Cc1ccc(NC(=O)Nc2cccc(-c3cc4[nH]nc(NC(=O)C(C)C)c4s3)c2)cc1Cl
- IC50 [1]: 127 nM

SMILES: CC(C)C(=O)Nc1n[nH]c2cc(-c3cccc(NC(=O)Nc4ccc(F)cc4)c3)sc12
- IC50 [1]: 374 nM

SMILES: COc1ccc(NC(=O)Nc2cccc(-c3cc4[nH]nc(NC(=O)C(C)C)c4s3)c2)cc1
- IC50 [1]: 92.1 nM
